Reference: patent US20230172132A1, “A METHOD FOR […] CONTENT IN A CROP PLANT” (SENSIENT COLORS, LLC, priority 2020, published 2023)

Tests used:
red beet (Beta vulgaris) = test: Greenhouse testing: foliar spray of Ethephon on crop plants, pigment content of roots at harvest; type: in vivo; conditions: for Betanin / Vulgaxanthin: greenhouse, spray rate not given
Protocol: Planting of varieties were staggered across several weeks to vary maturity for one spray. Two spray rates were administered across all plants on one spray date ([…]). Harvesting was done 3-4 weeks after spray. Initial visualization was performed prior to crop samples sent to laboratory for evaluation.

beet plant = test: Pre-harvest foliar spraying of ethylene-releasing compound on beet leaves, betalain concentration of roots versus unsprayed controls; type: in vivo, Beta vulgaris
Text: In one embodiment, the method comprises the pre-harvest foliar spraying of an ethylene-releasing compound on a beet plant, wherein the pre-harvest foliar spraying of an ethylene-releasing compound leaves the mean betalain concentration in the roots of the treated plants increased by more than 200% when compared to controls without any spraying.
The method described herein may be used for commercially-relevant, large scale production of a betalain pigment, e.g., the large scale isolation from a beet crop plant. Accordingly, it may be that the isolation of betalains of step (iii) is done from at least 15 different harvested beet plants, more preferably from at least 100 different harvested beet plants, even more preferably from at least 500 different harvested beet plants, or such as from at least 1000 different harvested beet plants. It is evident that when at least 15 different harvested beet plants are used in isolation step (iii), then foliar spraying of ethylene-releasing compound (e.g., 2-Chloroethylphosphonic acid) of step (i) has been done on at least 15 different beet plants and in step (ii), at least 15 different crop plants have been harvested. As discussed above, the present inventors identified that by pre-harvest foliar spraying of 2-Chloroethylphosphonic acid (e.g., 2-Chloroethylphosphonic acid) on beet leaves the mean betalain concentration of treated plants increased by an increased amount when compared to controls without any spraying.
Preferably, the amount of isolated betalain pigment in step (iii) of the method is an amount of betalain pigment which is at least 15% higher (w/w), more preferably at least 20/a higher (w/w), even more preferably at least 25% higher (w/w), and most preferably at least 35% higher (w/w), as compared to the amount of betalain pigment that is isolated in a control experiment without use of the ethylene-releasing compound in step (i). The purpose of a control experiment is to analyze the effect of using ethylene-releasing compound (e.g. 2-Chloroethylphosphonic acid). […]

[1] = harvest 7, 10, 13, 16, 19, 22, 25, 26, 29 and 35 weeks after planting, every harvest point

Q: Which results are given for `O=P(O)(O)CCCl` [Ethephon, 2-Chloroethylphosphonic acid]?
A: Betanin (red beet (Beta vulgaris); beet variety Chioggia): 320 mg/kg, dry basis; Vulgaxanthin (red beet (Beta vulgaris); beet variety Chioggia): 380 mg/kg, dry basis; Anthocyanin levels (red beet (Beta vulgaris); carrots, beets and radishes, spray 120 g/h and 360 g/h, harvest 3-4 weeks after spray): Enhanced; Betanin (red beet (Beta vulgaris); red beet variety Nochowski): 9,400 mg/kg, dry basis; Vulgaxanthin (red beet (Beta vulgaris); red beet variety Nochowski): 6,700 mg/kg, dry basis; Betanin (red beet (Beta vulgaris); red beet variety Red Cloud): 6,000 mg/kg, dry basis; Vulgaxanthin (red beet (Beta vulgaris); red beet variety Red Cloud): 3,300 mg/kg, dry basis; Betanin (red beet (Beta vulgaris); red beet variety Ruby Queen): 3,500 mg/kg, dry basis; Vulgaxanthin (red beet (Beta vulgaris); red beet variety Ruby Queen): 800 mg/kg, dry basis; mean betanin concentration of treated roots (beet plant; [1]): higher; mean vulgaxanthin concentration of treated roots (beet plant; [1]): higher; mean betalain concentration of treated plants compared to controls without any spraying (beet plant; pre-harvest foliar spraying on beet leaves): increased
